Structures are written as SMILES.

T1 sequence (P11712 whole entry): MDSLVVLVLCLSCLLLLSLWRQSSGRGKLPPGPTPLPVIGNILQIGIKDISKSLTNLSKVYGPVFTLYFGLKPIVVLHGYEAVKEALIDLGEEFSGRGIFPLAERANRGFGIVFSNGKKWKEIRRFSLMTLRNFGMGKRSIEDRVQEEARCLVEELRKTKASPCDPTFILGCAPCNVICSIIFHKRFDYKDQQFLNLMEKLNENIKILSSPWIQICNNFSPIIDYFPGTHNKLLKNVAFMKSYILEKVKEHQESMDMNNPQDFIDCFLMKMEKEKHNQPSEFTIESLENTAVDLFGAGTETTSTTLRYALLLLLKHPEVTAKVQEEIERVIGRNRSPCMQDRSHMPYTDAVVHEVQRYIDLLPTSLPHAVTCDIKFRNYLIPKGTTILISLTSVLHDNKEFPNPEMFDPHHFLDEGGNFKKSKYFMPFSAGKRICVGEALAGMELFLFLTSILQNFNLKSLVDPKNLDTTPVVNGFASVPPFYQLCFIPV

This test concerns the target T1, CYP2C9 (Homo sapiens, UniProt P11712).
T1 construct: Human liver microsome (20 mg protein/mL, 5 μL, Xenotech LLC, purchased from Lenexa KS); tissue Xenotech LLC; host or cells: human liver microsome
The test can be described thus: CYP inhibitory test using human liver microsome. It is filed as in vitro ADME. The conditions noted are these: model substrate diclofenac, 37° C. 10 min, read-out: CYP2C9 inhibition IC50. The protocol: Human liver microsome (20 mg protein/mL, 5 μL, Xenotech LLC, purchased from Lenexa KS) was suspended in 100 mM potassium phosphate buffer (70 μL, pH 7.4), mixed with a solution (0.5 μL) of the Example compound dissolved in DMSO and preincubated at 37° C. for 5 min. NADPH producing system coenzyme solution (β-nicotinamide adenine dinucleotide phosphate: 5.2 mM, D-glucose-6-phosphate: 13.2 mM, magnesium chloride: 13.2 mM, glucose-6-phosphate dehydrogenase: 1.8 U/mL) 25 μL, and a model substrate (CYP3A4: midazolam 1 mM, CYP2D6: bufuralol 1 mM, CYP2C9: diclofenac 2 mM) 0.5 μL dissolved in DMSO were added to start the reaction. After incubation at 37° C. for 10 min., acetonitrile (200 μL) containing an internal standard substance (propranolol 1 μM) was added and the mixture was centrifuged (room temperature, 3000 rpm, 20 min). The amount of the metabolite produced from each model substrate in the supernatant was measured by high performance liquid chromatography/mass spectrometry (LC/MS/MS) and each CYP enzyme activity was determined. The concentration showing 50% inhibition (IC50) was calculated relative to the enzyme activity without addition of Example compound (DMSO 0.5 μL added) as 100%.
Broadly, the IC50 is the concentration that inhibits the measured activity by half. As to `COC(=O)c1cccc(C(=O)N2CCOc3ccccc32)c1` [Example 48, methyl 3-(2,3-dihydrobenzo[1,4]oxazine-4-carbonyl)benzoate], the IC50 was over 50 µM.

For the compound `Nc1ccc2c(c1)CCN2C(=O)c1cc(Cl)c(O)c(Cl)c1` [Example 78, (5-amino-2,3-dihydroindol-1-yl)-(3,5-dichloro-4-hydroxyphenyl)-methanone], the IC50 amounted to 18 µM.

Regarding `O=C(c1ccc(O)c(Cl)c1)N1CCOc2ccccc21` [Example 1, (3-chloro-4-hydroxyphenyl)-(2,3-dihydrobenzo[1,4]oxazin-4-yl)-methanone], the IC50 is over 50 µM.

On to `CC(=O)Oc1c(Cl)cc(C(=O)N2CCOc3ccccc32)cc1Cl` [Example 87, 2,6-dichloro-4-(2,3-dihydrobenzo[1,4]oxazine-4-carbonyl)-phenyl acetate], for which the IC50 was found to be 31 µM.

Turning to `O=C(c1cc(Cl)c(O)c(Cl)c1)N1CCOc2ccccc21` [Example 3, (3,5-dichloro-4-hydroxyphenyl)-(2,3-dihydrobenzo[1,4]oxazin-4-yl)-methanone], the half-maximal inhibitory concentration (IC50) turned out to be 27 µM.

Take `COC(=O)c1ccc2c(c1)OCCN2C(=O)c1cc(Cl)c(O)c(Cl)c1` [Example 59, methyl 4-(3,5-dichloro-4-hydroxybenzoyl)-3,4-dihydro-2H-benzo[1,4]oxazine-7-carboxylate]: the IC50 stood at 8 µM.

Take `O=C(c1cc(Cl)c(O)c(Cl)c1O)N1CCOc2ccccc21` [Example 50, (3,5-dichloro-2,4-dihydroxyphenyl)-(2,3-dihydrobenzo[1,4]oxazin-4-yl)-methanone]: the IC50 was determined as 15 µM.

For the compound `O=C(c1cc(Br)c(O)c(Br)c1)N1CCOc2ccc(F)cc21` [Example 79, (3,5-dibromo-4-hydroxyphenyl)-(6-fluoro-2,3-dihydrobenzo[1,4]oxazin-4-yl)-methanone], the IC50 is 13 µM.

Consider `O=C(c1cc(Cl)c(O)c(Cl)c1)N1CCCCc2ccccc21` [Example 27, (3,5-dichloro-4-hydroxyphenyl)-(2,3,4,5-tetrahydrobenzo[b]azepin-1-yl)-methanone], for which the IC50 came out at 21 µM.

As for `O=C(c1cc(Cl)c(O)c(Cl)c1)N1CCOc2ccc3ccccc3c21` [Example 16, (3,5-dichloro-4-hydroxyphenyl)-(2,3-dihydronaphtho[2,1-b][1,4]oxazin-1-yl)-methanone], the IC50 was 10 µM.

Consider `O=C(c1ccc(O)cc1)N1CCOc2ccccc21` [Example 88, (2,3-dihydrobenzo[1,4]oxazin-4-yl)-(4-hydroxyphenyl)-methanone], for which the IC50 was over 50 µM.

Regarding `O=C(c1cc(Cl)c(O)c(Cl)c1)N1CCCc2ccccc21` [Example 26, (3,5-dichloro-4-hydroxyphenyl)-(3,4-dihydro-2H-quinolin-1-yl)-methanone], the IC50 worked out at 13 µM.

For `O=C(O)c1ccc2c(c1)OCCN2C(=O)c1cc(Cl)c(O)c(Cl)c1` [Example 60, 4-(3,5-dichloro-4-hydroxybenzoyl)-3,4-dihydro-2H-benzo[1,4]oxazine-7-carboxylic acid], the IC50 is over 50 µM.

As to `O=C(c1cc(Cl)c(O)c(Cl)c1)N1CCOc2cc([N+](=O)[O-])ccc21` [Example 70, (3,5-dichloro-4-hydroxyphenyl)-(7-nitro-2,3-dihydrobenzo[1,4]oxazin-4-yl)-methanone], the IC50 is 20 µM.

For `O=C(c1cc(Cl)c(O)c(Cl)c1)N1CCOc2ccc(-c3ccccc3)cc21` [Example 65, (3,5-dichloro-4-hydroxyphenyl)-(6-phenyl-2,3-dihydrobenzo[1,4]oxazin-4-yl)-methanone], the IC50 was 14 µM.

In the case of `CC(=O)N1CCN(C(=O)c2cc(Cl)c(O)c(Cl)c2)c2ccccc21` [Example 73, 1-[4-(3,5-dichloro-4-hydroxybenzoyl)-3,4-dihydro-2H-quinoxalin-1-yl]-ethanone], the IC50 was over 50 µM.

In the case of `O=C(c1cc(Cl)c(O)c(Cl)c1)N1CCN(C(=O)c2cc(Cl)c(O)c(Cl)c2)c2ccccc21` [Example 53, [4-(3,5-dichloro-4-hydroxybenzoyl)-3,4-dihydro-2H-quinoxalin-1-yl]-(3,5-dichloro-4-hydroxyphenyl)-methanone], the IC50 came out at 6 µM.

With `O=C(c1cc(Cl)c(O)c(Cl)c1)N1CCc2ccccc21` [Example 77, (3,5-dichloro-4-hydroxyphenyl)-(2,3-dihydroindol-1-yl)-methanone], the IC50 is 18 µM.

On to `O=C(c1cc(F)c(O)c(F)c1)N1CCOc2ccccc21` [Example 6, (3,5-difluoro-4-hydroxyphenyl)-(2,3-dihydrobenzo[1,4]oxazin-4-yl)-methanone], for which the IC50 is over 50 µM.

Turning to `O=C(O)c1ccc2c(c1)N(C(=O)c1cc(Cl)c(O)c(Cl)c1)CCO2` [Example 57, 4-(3,5-dichloro-4-hydroxybenzoyl)-3,4-dihydro-2H-benzo[1,4]oxazine-6-carboxylic acid], the IC50 is over 50 µM.

In the case of `O=C(c1cc(Br)c(O)c(Br)c1)N1CCOc2ccccc21` [Example 4, (3,5-dibromo-4-hydroxyphenyl)-(2,3-dihydrobenzo[1,4]oxazin-4-yl)-methanone], the IC50 is 9 µM.

For the compound `COc1c(Cl)cc(C(=O)N2CCOc3ccccc32)cc1Cl` [Example 86, (3,5-dichloro-4-methoxyphenyl)-(2,3-dihydrobenzo[1,4]oxazin-4-yl)-methanone], the IC50 was over 50 µM.

Turning to `COC(=O)c1cccc2c1N(C(=O)c1cc(Cl)c(O)c(Cl)c1)CCO2` [Example 58, methyl 4-(3,5-dichloro-4-hydroxybenzoyl)-3,4-dihydro-2H-benzo[1,4]oxazine-5-carboxylate], the IC50 was 21 µM.

As to `COc1ccc2c(c1)OCCN2C(=O)c1cc(Cl)c(O)c(Cl)c1` [Example 18, (3,5-dichloro-4-hydroxyphenyl)-(7-methoxy-2,3-dihydrobenzo[1,4]oxazin-4-yl)-methanone], the IC50 is 9 µM.

Take `O=C(c1cc(Cl)c(O)c(Cl)c1)N1CCOc2cccnc21` [Example 36, (3,5-dichloro-4-hydroxyphenyl)-(2,3-dihydropyrido[3,2-b][1,4]oxazin-4-yl)-methanone]: the IC50 was found to be 16 µM.

For the compound `O=C(O)COc1c(Cl)cc(C(=O)N2CCOc3ccccc32)cc1Cl` [Example 92, [2,6-dichloro-4-(2,3-dihydrobenzo[1,4]oxazine-4-carbonyl)phenoxy]acetic acid], the IC50 is over 50 µM.

On to `O=C(c1cc(Cl)c(O)c(Cl)c1)N1CCNc2ccccc21` [Example 54, (3,5-dichloro-4-hydroxyphenyl)-(3,4-dihydro-2H-quinoxalin-1-yl)-methanone], for which the IC50 came to 48 µM.

Take `CN1CCN(C(=O)c2cc(Cl)c(O)c(Cl)c2)c2ccccc21` [Example 74, (3,5-dichloro-4-hydroxyphenyl)-(4-methyl-3,4-dihydro-2H-quinoxalin-1-yl)-methanone]: the IC50 is 33 µM.

For the compound `Cc1cccc2c1N(C(=O)c1cc(Cl)c(O)c(Cl)c1)CCO2` [Example 14, (3,5-dichloro-4-hydroxyphenyl)-(5-methyl-2,3-dihydrobenzo[1,4]oxazin-4-yl)-methanone], the IC50 came to 16 µM.

With `O=C(c1ccc(O)c(C(F)(F)F)c1)N1CCOc2ccccc21` [Example 39, (2,3-dihydrobenzo[1,4]oxazin-4-yl)-(4-hydroxy-3-trifluoromethylphenyl)-methanone], the IC50 turned out to be 21 µM.

In the case of `O=C(c1cc(Cl)c(O)c(Cl)c1)N1CCCOc2ccccc21` [Example 95, (3,5-dichloro-4-hydroxyphenyl)-(7,8-dihydro-6H-5-oxa-9-azabenzocyclohepten-9-yl)-methanone], the IC50 was over 50 µM.

In the case of `O=C(c1cc(Cl)c(O)c(Cl)c1)N1CCOc2ccc(S(=O)(=O)N3CCCC3)cc21` [Example 33, (3,5-dichloro-4-hydroxyphenyl)-[6-(pyrrolidine-1-sulfonyl)-2,3-dihydrobenzo[1,4]oxazin-4-yl]-methanone], the IC50 turned out to be 4 µM.

For `COc1cc(C(=O)N2CCOc3ccccc32)cc(Cl)c1O` [Example 40, (3-chloro-4-hydroxy-5-methoxyphenyl)-(2,3-dihydrobenzo[1,4]oxazin-4-yl)-methanone], the IC50 was over 50 µM.

With `Cc1ccc2c(c1)N(C(=O)c1cc(Br)c(O)c(Br)c1)CCO2` [Example 81, (3,5-dibromo-4-hydroxyphenyl)-(6-methyl-2,3-dihydrobenzo[1,4]oxazin-4-yl)-methanone], the IC50 came out at 13 µM.

`O=C(c1cc(Cl)c(O)c([N+](=O)[O-])c1)N1CCOc2ccccc21` [Example 31, (3-chloro-4-hydroxy-5-nitrophenyl)-(2,3-dihydrobenzo[1,4]oxazin-4-yl)-methanone]: the IC50 is 20 µM.

Consider `O=C(O)c1cccc2c1OCCN2C(=O)c1cc(Cl)c(O)c(Cl)c1` [Example 62, 4-(3,5-dichloro-4-hydroxybenzoyl)-3,4-dihydro-2H-benzo[1,4]oxazine-8-carboxylic acid], for which the IC50 was over 50 µM.

Turning to `O=C(c1cc(Cl)c(O)c(Cl)c1)N1CCOc2ccc(Cl)cc21` [Example 51, (6-chloro-2,3-dihydrobenzo[1,4]oxazin-4-yl)-(3,5-dichloro-4-hydroxyphenyl)-methanone], the IC50 stood at 16 µM.

Take `O=C(O)c1ccc(C(=O)N2CCOc3ccccc32)cc1` [Example 47, 4-(2,3-dihydrobenzo[1,4]oxazine-4-carbonyl)benzoic acid]: the IC50 is over 50 µM.
